The values that follow come from US20030086920A1, “Use of des-Aspartate-angiotensin I as an agent for the treatment and prevention of glomerulosclerosis and renal failure” (priority 2000, published 2003).

The test system of assay [1] is ablation nephropathic rats. Nature of the assay: Proteinuria in 5/6 nephrectomized (ablation nephropathic) rats. Format: in vivo, Sprague Dawley rats. The settings on record: for 24-hour urinary excretion of protein: Weeks 9-16 post 5/6 nephrectomy, 762 nmoles/kg/day oral for 8 weeks, mean ± SEM. On the procedure: Five-sixths nephrectomy was carried out as described by Morrison (11). Briefly, each animal was anaesthetized with 7% w/v chloral hydrate (0.4 g/kg, i.p.). An incision was made in the ventral abdominal wall to access the kidneys. Right nephrectomy was performed and the cranial and caudal third of the left kidney were cut off. Tissue adhesive (Histoccryl, B. Braun) was used to seal the cut ends of the left kidney and prevent bleeding. In this way 5/6 of the renal parenchyma was removed. This model results in focal and segmental glomerulosclerosis, resembling renal lesions in humans like oligomeganephronia, membranous nephropathy, minimal change nephritis, proliferative glomerulonephritis, analgesic nephropathy, diabetes mellitus, unilateral nephrectomy, cortical necrosis, and unilateral renal agenesis (9).
Following the operation, each animal was placed in a metabolic cage for 24 hours once a week for a duration of 8 weeks. The 24-hour urine output and the concentration of protein in the urine were measured. After the 8th week, the animals were randomly divided into two groups (8 animals per group). Animals in one of the group (the treatment group) were orally administered 762 nmoles/kg/day of des-Asp-angiotensin I dissolved in 0.5 ml of saline via a 1-ml syringe with a blunted needle for a period of 8 weeks. The dose of 762 nmoles/kg/day was calculated based on the maximum effective oral anti-cardiac hypertrophic dose (250 nmole per rat of average weight of 328 g) in the original parent patent. Animals in the other group (the control group) were similarly administered with 0.5 ml of saline. Weekly measurement of 24-hour urine output and the concentration of protein in the urine in these animals were carried out for another 8 weeks. The protocol was designed based on our preliminary observation that urinary excretion of protein in the 5/6 nephrectomized rats commenced to increase above the normal value in 7th to 8th week post nephrectomy. A repeat of the experiment with 12 nephrectomized rats per group was carried out.
Data were expressed as mean±SEM. […]

Assay [2] has as its system cardiac hypertrophy. The settings on record: rat of average weight of 328 g, from the original parent patent; cited from earlier work.

On to “des-Aspartate angiotensin I [des-Asp-angiotensin I]”, for which the “24-hour urinary excretion of protein” value in assay [1] (8 rats, first experiment, saline control 37.2 ± 2.3, p = 0.024) was “*28.7 ± 2.5 mg”; in assay [1] (12 rats, repeat experiment, saline control 51.7 ± 4.7, p = 0.048), “*39.6 ± 3.3 mg”. For the same substance, the “Anti-proteinuric action (progressive development of proteinuria)” value in assay [1] (ablation nephropathic rats, oral dose of 762 nmoles/kg/day) is given as “effective agent in attenuating the progressive development of proteinuria”. Moreover, the “Maximum effective oral anti-cardiac hypertrophic dose” value in assay [2] was 250 nmole per rat.
